In patent US12384751B2, “Allosteric activators of the ALPHA1A-adrenergic receptor” (The Cleveland Clinic Foundation, priority 2019, dated 2025):
Entries after “also recorded” stand apart in the source; their conditions may differ.

What was measured:
α1B-AR = molecular target: T1, α1B-AR (Homo sapiens, UniProt P35368); assay: Effect of compound on binding affinity of norepinephrine at α1B-AR; conditions: 10^−5M
T1 construct: expressed in transfected cells; host or cells: Rat-1 fibroblast cells
T1 sequence (P35368 1-520): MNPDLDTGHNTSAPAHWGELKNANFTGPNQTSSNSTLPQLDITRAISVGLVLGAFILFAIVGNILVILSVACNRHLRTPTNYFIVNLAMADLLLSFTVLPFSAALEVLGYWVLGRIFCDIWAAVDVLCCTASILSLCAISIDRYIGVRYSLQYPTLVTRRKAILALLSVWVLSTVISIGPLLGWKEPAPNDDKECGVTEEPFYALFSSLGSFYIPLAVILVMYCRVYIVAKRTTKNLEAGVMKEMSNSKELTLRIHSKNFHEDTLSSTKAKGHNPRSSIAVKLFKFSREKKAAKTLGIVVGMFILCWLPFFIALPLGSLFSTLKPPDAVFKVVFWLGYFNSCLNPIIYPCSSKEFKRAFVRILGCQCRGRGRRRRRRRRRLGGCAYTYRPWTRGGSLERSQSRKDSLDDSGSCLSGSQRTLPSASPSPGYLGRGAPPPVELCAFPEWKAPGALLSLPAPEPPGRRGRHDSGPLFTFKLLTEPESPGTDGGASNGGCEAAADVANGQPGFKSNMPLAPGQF
Experimental: Competition binding assays: These compounds were characterized for their ligand binding properties at the α1-AR subtypes. The binding affinities of Compounds 1-10 were determined in a series of competition-binding experiments with the α1-AR-selective antagonist [^125I]HEAT as the radioligand. Assays were performed in duplicate in HEM buffer, in a total assay volume of 1000 μl. Radioligand binding assays are composed of 5 ug of membranes, harvested from Rat-1 fibroblast cells expressing only one of the alpha1-AR subtypes, HEM buffer containing GTP (composed of 20 mM HEPES, pH 7.4, 1.4 mM EGTA, 12.5 mM MgCl2, pH to 7.4), 0.5 mM GTP, 35-80 pM^125I-HEAT, and various doses of norepinephrine or epinephrine and incubated with shaking at 25° C. for 1-2 hours. The above conditions will convert all the conformations of the receptor into a single low affinity site. To show both high and low affinity sites of the receptor (typically seen with GPCR agonists), the GTP is removed from the binding buffer. Nonspecific binding was determined experimentally in the presence of 10^−4 M phentolamine. Unbound radioactivity was separated from membrane-bound radioactivity by filtration through Whatman GF/C filter paper. […] Bound radioactivity remaining on the filters was counted on an ICN gamma counter operating at 79.8% efficiency. Data are analyzed using Graphpad Prism. […]

[1] = test system: 3×TG Alzheimer's Disease (AD) mouse model; conditions: in vivo
Experimental: AD mice were first randomized and sorted into control or treatment groups. […] 14 AD mice from each treatment group received Compound 3 in the drinking water (2.611 mg/kg/bw) to deliver a daily dose near the peak potentiation of the cAMP response in the brain at 10^−8M based upon the PAM assay and pharmacokinetics. This was achieved by adding Compound 3 to the drinking water at 32 uM, assuming the mice drink 6 ml/day, with only 10% of bioavailable drug reaching the brain. The drug was administered in the drinking water for 10 months, starting at age 2 months, then subjected to either different cognitive behavioral tests or electrophysiology at age 12 months to maximize the manifestations of AD symptoms in these mice. Mice are maintained on the drug for the duration of the studies and blinded to the operator.

α1A-AR = molecular target: T2, α1A-AR (Homo sapiens, UniProt P35348); assay: Total inositol phosphate assay at α1A-AR; assay type: cell-based; parameters: expressed in transfected cells; host or cells: Rat-1 fibroblast cells
T2 sequence (P35348 1-466): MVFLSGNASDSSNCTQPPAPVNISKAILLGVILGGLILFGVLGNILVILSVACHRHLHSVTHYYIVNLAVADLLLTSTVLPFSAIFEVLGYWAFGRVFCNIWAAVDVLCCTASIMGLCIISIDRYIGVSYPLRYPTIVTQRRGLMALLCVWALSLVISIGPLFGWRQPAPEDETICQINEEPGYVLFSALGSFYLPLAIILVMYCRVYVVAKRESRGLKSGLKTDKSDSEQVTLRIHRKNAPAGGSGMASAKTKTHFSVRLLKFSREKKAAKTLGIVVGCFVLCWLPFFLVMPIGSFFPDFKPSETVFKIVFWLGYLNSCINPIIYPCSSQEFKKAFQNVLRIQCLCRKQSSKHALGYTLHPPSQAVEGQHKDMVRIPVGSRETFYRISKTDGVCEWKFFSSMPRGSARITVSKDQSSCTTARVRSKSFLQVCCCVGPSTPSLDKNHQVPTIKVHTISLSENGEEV
Experimental: Total Inositol Phosphate assay: Cells expressing a single α1-adrenergic receptor subtypes are washed and re-plated into 6-well plates containing DMEM media at approximately 5×10^5 cells/well. Cells are allowed to rest till the next day in a CO2 incubator at 37° C. The cells are washed twice with DMEM (no serum), then 2 ml of DMEM is added to each well. 2 ul of ^3H-inositol (at 1 uCi/mL, Perkin-Elmer NET 114 005MC) and 10 mM LiCl is added to each well. The cells are incubated for 1 hour at 37° C. in a CO2 incubator. […] The cells are incubated again for 1 hour at 37° C. in a CO2 incubator. The media is aspirated and 1 mL of ice-cold 0.4M perchloric acid is added. The cells are scraped, transferred to a vial, then 1 mL 0.72M KOH/0.6M KHCO3 is added, the tube vortexed and the contents centrifuged at 2000 rpm for 10 mins. The supernatant is removed and applied to BioRad polyprep columns packed with 1 mL of AG1-X8 resin (BioRad AG1-X8 resin 100-200 mesh #140-1444) in 0.1M formic acid in a holding tray which is over a plastic catch tray. The supernatant is allowed to naturally drip through the column then washed with 8 ml of 0.1M formic acid (2 ml at a time). The columns are transferred via the holding tray to a box of 20 ml scintillation vials so that the columns drip directly into the vials. Total inositol phosphates are eluted off the column with 2 ml of 0.1M formic acid/1M ammonium formate. The columns are eluted a second time into a new scintillation vial with another 2 ml of 0.1M formic acid/1M ammonium formate. 18 ml of Ecoscint A is added to each scintillation vial and vortexed. The vials are allowed to dark adapt overnight at room temperature to reduce autofluorescence. The vials are counted in a scintillation counter on the tritium channel and the cpms from the first and second fractions eluted off the columns are added together.

**Q.** Which “effect on affinity of norepinephrine at the α1B-AR” value (α1B-AR) does the source give for `CC(C)Cc1c(OCC2=NCCN2)cccc1N(C)S(C)(=O)=O` [Compound 3, N-[3-(4,5-Dihydro-1H-imidazol-2-ylmethoxy)-2-isobutyl-phenyl]-N-methyl-methanesulfonamide] here?
**A.** no effect; also recorded: does not increase the affinity of norepinephrine

**Q.** And the “death rates between groups” value [1]?
**A.** no differences in the death rates

**Q.** And the “effect on epinephrine-mediated inositol phosphate response at the α1A-AR” value (α1A-AR)?
**A.** no effect

**Q.** And the “effect on norepinephrine-mediated inositol phosphate response at the α1A-AR” value (α1A-AR)?
**A.** does not have any effect; also recorded: no effect

**Q.** What about the “stimulation of inositol phosphate / agonist activity by the compound by itself” value (α1A-AR; compound alone) of the same compound?
**A.** cannot stimulate
